The subject of data set [1] is E. coli DH10B. The experiment in a line: Growth (optical density) of E. coli harboring mevalonate pathway operon plasmids in media supplemented with exogenous mevalonate. Set-up: growth of strains lacking the ADS gene: dose or concentration left out as unconfirmed. On the procedure:
For the growth studies, the optical density (OD) of cultures expressing the various recombinant pathways was measured with a microtiter plate reader (SpectraMax, Molecular Devices) from 200 μl cultures of LB broth in 96-well plates incubated at 37° C. with continuous shaking. […] The DYM1 strain was propagated on LB medium containing 0.5 mM methylerithrytol (ME) and transformed DYM1 cells were first allowed to recover on plates supplemented with ME before streaking them on test media.
To investigate the cause of this inhibition, measured the growth of E. coli DH10B from strains harboring either the pMKPMK, pMevB, pMBI or pMBIS plasmid in media supplemented with increasing concentrations of exogenous mevalonate was measured. […] To compare the intracellular prenyl pyrophosphate pools in the same strains, resting cells harboring the different mevalonate operon constructs were fed radiolabeled mevalonate and the labeled metabolites were tracked. […] Simultaneous expression of the amorphadiene synthase consumed the excess FPP pool accumulated in the MBIS host, as shown by a decrease in intracellular FPP.
However, in the absence of the IPP isomerase, FPP synthase and terpene synthase to channel the pathway intermediates to the terpene olefin, toxic levels of intracellular pyrophosphates, especially IPP, may accumulate.

Data set [2] deals with E. coli. The experiment in a line: Growth of E. coli overproducing IPP and DMAPP (MK, PMK, MPD, IPP isomerase from pBBR1MCS-2) with various concentrations of mevalonate. It is filed as cell-based, Escherichia coli. The note with it: all concentrations of mevalonate studied. The text has this:
(§1) Campos (2001) Biochem. J. 353:59-67.
A genomic library from the isoprene-producing bacteria Bacillus subtilis 6051 was expressed from the pTrc99A plasmid in an E. coli strain engineered (genetically modified) to produce elevated levels of IPP and DMAPP. The engineered screening strain expressed nucleic acids encoding mevalonate kinase, phosphomevalonate kinase, mevalonate diphosphate decarboxylase, and IPP/DMAPP isomerase from the pBBR1MCS plasmid, as described in Example 1. Mevalonate was present in the growth medium at a concentration of 10 mM. After several rounds of growth, only plasmids containing genomic fragments with either yhfR or nudF were found in the genomic library.
FIG. 7. […] Triplicate cultures of E. coli expressing the genes encoding for mevalonate kinase, phosphomevalonate kinase, mevalonate diphosphate decarboxylase, and IPP isomerase from the pBBR1MCS-2 plasmid were grown in the presence of various concentrations of mevalonate present in the culture medium. The cells also harbor the pTRC99A expression vector.
FIG. 8. […] Triplicate cultures were set up, which were identical to those depicted in FIG. 7, except that pTRC99A was replaced by pYhfR. The pYhfR plasmid is a pTrc99A backbone that contains the gene yhfR. The yhfR gene was isolated from a plasmid library containing genomic DNA from Bacillus subtilis 6051.
FIG. 9. […]

Data set [3] concerns E. coli strain DYM1. Nature of the data set: Complementation of isoprenoid-deficient ispC mutant E. coli strain DYM1 on supplemented plates. It is filed as cell-based, Escherichia coli.
Source text: as §1
To increase the intracellular concentration of FPP substrate supplied to the amorphadiene synthase, the genes encoding the mevalonate-dependent isoprenoid pathway from S. cerevisiae were assembled into operons and expressed in E. coli. To simplify the task of engineering an eight-gene biosynthetic pathway, we divided the genes into two operons, referred to as the “top” and “bottom”. The top operon, MevT, transforms the ubiquitous precursor acetyl-CoA to (R)-mevalonate in three enzymatic steps (FIG. 13). The bottom operon converts the (R)-mevalonate to IPP, DMAPP and/or FPP depending on the construct (FIG. 13). To test the functionality of the heterologous pathway, an E. coli strain deficient in isoprenoid synthesis (strain DYM1) was transformed with plasmids expressing the three different bottom operon constructs pMevB, pMBI and pMBIS (FIG. 13). Strain DYM1 has a deletion in the ispC gene, which encodes 1-deoxy-D-xylulose-5-phosphate reductoisomerase (Kuzuyama et al. (1999) supra) and therefore, cannot synthesize 2-C-methyl-D-erythritol 4-phosphate, an intermediate in the endogenous isoprenoid biosynthetic pathway (FIG. 3). As expected, all strains grew in the presence of 2-C-methyl-D-erythritol (ME), but only the strains harboring pMBI or pMBIS and not pMevB grew on plates supplemented with 1 mM mevalonate in the absence of ME. […]

Data set [4] relates to engineered E. coli. The experiment in a line: Growth and metabolite analysis of E. coli expressing S. cerevisiae HMG-CoA synthase (pHMGS). It is filed as cell-based, Escherichia coli. The note with it: accumulation on expression of HMG-CoA synthase from pHMGS. The text has this: As a specific example, the accumulation of hydroxymethylglutaryl-CoA (HMG-CoA) is toxic to engineered E. coli.
FIG. 10. Cultures of E. coli expressing either no heterologous genes (Control), the S. cerevisiae HMG-CoA synthase alone (pHMGS & Empty Vector), or both the S. cerevisiae HMG-CoA synthase and HMG-CoA reductase (pHMGS & pHMGR) on separate expression vectors.
FIG. 11. Metabolite analysis of cultures of E. coli expressing either no heterologous genes (Control), the S. cerevisiae HMG-CoA synthase alone (pHMGS and Empty Vector), or both the S. cerevisiae HMG-CoA synthase and HMG-CoA reductase (pHMGS and pHMGR) on separate expression vectors. E. coli expressing HMG-CoA synthase alone accumulated HMG-CoA.

Regarding `C=C(C)CCO[P@@](=O)(O)OP(=O)(O)O` [IPP, isopentenyl diphosphate], the “effect of intracellular accumulation on cell growth” value in data set [1] (accumulation in cells with high flux through the mevalonate pathway (pMevB)) is “toxic and inhibits normal cell growth”.
Turning to `CC(O)(CCO)CC(=O)O` (stereo not shown) [mevalonate], in data set [2] (FIG. 8), the “growth of cells harboring pYhfR (yhfR)” value is “No growth inhibition”. Also, the “growth of cells harboring pC9b (nudF)” value in data set [2] (FIG. 9) is recorded as “No growth inhibition”. In data set [1] (5 mM mevalonate in the media), the “growth of cells harboring pMKPMK, pMBI or pMBIS” value is “did not affect the growth” and the “growth of cells harboring pMevB” value was “inhibited the growth”. Moreover, the “growth of cells expressing MBIS” value in data set [1] (10 mM mevalonate) is “growth inhibition”. Moreover, the “growth of cells co-expressing the MBIS operon and the amorphadiene synthase gene” value in data set [1] (all mevalonate concentrations, IPTG-inducible promoters) is on record as “normal growth rates”. Moreover, in data set [1] (approximately 2 hours after addition of mevalonate and IPTG), the “growth of strains lacking the ADS gene” value is “Growth inhibition”. Further, in data set [1] (greater than 10 mM mevalonate, MBIS cultures where amorphadiene synthase was not expressed), the “growth of control cultures” value is “Severe growth inhibition”. In addition, in data set [1] (media supplemented with 1 mM mevalonate), the “growth on expression of the operons” value is “only a slight decrease in growth”. Moreover, the “growth of DYM1 strains harboring pMBI or pMBIS” value in data set [3] (plates supplemented with 1 mM mevalonate in the absence of ME) was “grew”.
Take `C[C@](O)(CO)[C@H](O)CO` [2-C-methyl-D-erythritol]: in data set [3] (in the presence of 2-C-methyl-D-erythritol (ME)), the “growth of DYM1 strains harboring pMevB, pMBI or pMBIS” value is “grew”.
For the molecule `CC(C)(COP(=O)(O)OP(=O)(O)OC[C@H]1O[C@@H](n2cnc3c(N)ncnc32)[C@H](O)[C@@H]1OP(=O)(O)O)[C@@H](O)C(=O)NCCC(=O)NCCSC(=O)C[C@@](C)(O)CC(=O)O` [HMG-CoA, hydroxymethylglutaryl-CoA], in data set [4], the “effect of intracellular accumulation on engineered E. coli” value is given as “toxic”.
